Reference: paper PMC11748689, “Pharmacological and structural understanding of the Trypanosoma cruzi proteasome provides key insights for developing site-specific inhibitors” (The Journal of Biological Chemistry, 2024)
Non-standard residues stand in square brackets, D forms with d. Residues, ends and D or L forms follow the SMILES beside them. *: point of attachment. Nva = CCC[C@H](N)C(=O)O; Cbz = O=C(OCc1ccccc1)*

Key:
[1] = target: native T. cruzi proteasome (caspase-like activity, β1) (Trypanosoma cruzi, UniProt V5BHX1); test: Caspase-like activity assay (Proteasome-Glo), native T. cruzi proteasome; type: biochemical; conditions: mean ± SD, N = 3; for IC50: read-out: pIC50, Caspase Assay, Native (converted)
Protocol: (§1) Chymotrypsin-, trypsin-, and caspase-like activity assays were performed using a commercially available Proteasome-Glo 3-substrate system assay kit (catalog number G8532) (Promega Corporation) according to the manufacturers protocols and as previously described ([24]).
(§2) Prior to running assays, Proteasome-Glo buffer was used to reconstitute the luciferin detection reagent (containing a recombinant thermostable luciferase enzyme). The resuspended luciferin detection reagent was then mixed with Proteasome-Glo chymotrypsin-, trypsin- or caspase-like substrates (either 40 μM suc-Leu-Leu-Val-Tyr-aminoluciferin, 30 μM Z-Leu-Arg-Arg-aminoluciferin (Z is benzyloxycarbonyl) or 40 μM Z-Nle-Pro-Nle-Asp-aminoluciferin respectively (these concentrations represent 2x final assay concentrations)). These substrate mixtures were allowed to incubate at room temperature for 60 min prior to use to allow the removal of any contaminating free aminoluciferin.
(§3) When proteasome inhibitors were to be screened in the chymotrypsin, trypsin, and caspase assays, test compounds were dispensed into assay wells using an ECHO 550 acoustic dispenser (Labcyte) (final DMSO concentration 1%). Compounds were tested in either a 10-point concentration series (30 μM top final assay concentration, 1 in 3 dilution series) or a 12-point concentration series (30 μM top final assay concentration, 1 in 2.5 dilution series).
(§4) Proteasome assays were then performed as described above using Promega Proteasome-Glo 3-substrate system assay kit. […] Diluted proteasome (4 μl) was added to assay plates using an electronic multichannel pipette (Integra Biosciences Ltd) and the proteasome incubated with compound for 60 min at room temperature.
(§5) Following the 60 min incubation of proteasome and compounds, assays were initiated with the addition of 4 μl of a substrate mix (containing substrate and the luciferin detection reagent) using an electronic multichannel pipette. Final assay concentrations of substrates used were either 20 μM Suc-Leu-Leu-Val-Tyr-aminoluciferin, 15 μM Z-Leu-Arg-Arg-aminoluciferin, or 20 μM Z-Nle-Pro-Nle-Asp-aminoluciferin for chymotrypsin-, trypsin-, or caspase-like activity, respectively. Following a further 60 min assay incubation, luminescence was read using an EnVision 2102 Multilabel Reader (PerkinElmer, Inc) with 0.2 s per well reading time.
(§6) All data processing was performed using Microsoft Excel for Microsoft 365 software.
(§7) Nonlinear dose-response curve fitting was carried out using the Microsoft Excel add-in, XLfit (IDBS). Percentage inhibition data were either fitted to a standard 4-parameter logistic fit model (XLfit model 205; Equation 2) or a biphasic model (either XLfit model 300; Equation 3 or a custom biphasic model; Equation 4 (used in cases where the top and/or bottom parameters deviated from 100%/0% inhibition)).(2) y=A+(B−A)/1+(C/x)^D Where A = % inhibition at bottom, B = % inhibition at top, C = IC50, D = slope, x = inhibitor concentration and y = % inhibition.(3) y=(A/(1+10^(C−log(x))∗B))+((100−A)/(1+10^(D−log(x))∗B)) With A = % inhibition at midplateau, B = slope, C = log(IC50^A), D = log(IC50^B)).
(§8) All IC50 data generated were converted to pIC50 using Equation 5.

[2] = target: recombinant WT T. cruzi proteasome (caspase-like activity, β1) (Trypanosoma cruzi, UniProt V5BHX1); test: Caspase-like activity assay (Proteasome-Glo), recombinant wild-type T. cruzi proteasome; type: biochemical; conditions: for pIC50, Caspase Assay, Wild-type: mean ± SD, N = 3
Protocol: as §1, §2, §3, §4, §5, §6, §7, §8

[3] = target: recombinant β4^R mutant T. cruzi proteasome (caspase-like activity) (Trypanosoma cruzi, UniProt V5BHX1); test: Caspase-like activity assay (Proteasome-Glo), recombinant β4^R mutant T. cruzi proteasome; type: biochemical; conditions: for pIC50, Caspase Assay, β4^R mutant: mean ± SD, N = 3
Protocol: (§9) Point mutations were created in individual subunits using overlapping PCR from the original templates using Polh and Tn7L primers outside the genes and suitable internal primers to introduce selected mutations. For Δβ1Δβ2, β1 Thr 55, and β2 Thr 67 were both mutated to Ala, the β4^R mutant was produced by mutating Phe 24 and Ile 29 to Leu and Met respectively in β4 subunit.
as §1, §2
(§10) Proteasome assays were carried out using 384-well, white, low-volume plates (catalog number 784904) (Greiner Bio-One) at room temperature (∼23 °C) in 8 μl reaction volumes. When activity checks were to be run in the presence or absence of a fixed concentration of proteasome inhibitor, 80 nL of the inhibitor (at a concentration 100x the required final assay concentration), or 80 nL dimethylsulfoxide (DMSO), were dispensed into assay plates using an Echo 550 acoustic dispenser (Labcyte).
(§11) A 1 in 2 dilution series of the various T. cruzi proteasome samples (native, recombinant WT, β4^R mutant, and Δβ1Δβ2 mutant) were produced in assay buffer (50 mM Tris–HCl, pH 7.5, 10 mM sucrose, 5 mM MgCl2, 1 mM DTT, 2 mM ATP, 150 mM NaCl, 1 mM EDTA, and 0.05 mg/ml bovine serum albumin). Subsequently, 4 μl of the various concentrations of diluted proteasome were added to assay plates using an electronic multichannel pipette (Integra Biosciences Ltd). When kinetic read activity checks were performed (Fig. 2), proteasome final assay concentrations used were 115 μg/ml, 115 μg/ml, and 230 μg/ml native proteasome (in the chymotrypsin, trypsin, and caspase assays, respectively), and 4.1 μg/ml, 3.4 μg/ml, or 1.4 μg/ml recombinant WT proteasome (in the chymotrypsin, trypsin, and caspase assays, respectively). When activity checks were to be run in the presence or absence of a proteasome inhibitor plates containing inhibitor or DMSO control were incubated with the relevant proteasome sample for 60 min at room temperature (this step was not included in activity check experiments where compounds were not used).
(§12) Following the 60 min incubation of proteasome and compound (if required), assays were initiated with the addition of 4 μl of substrate mix (containing substrate and the luciferin detection reagent) using an electronic multichannel pipette. Final assay concentrations of substrates used were either 20 μM Suc-Leu-Leu-Val-Tyr-aminoluciferin, 15 μM Z-Leu-Arg-Arg-aminoluciferin, or 20 μM Z-Nle-Pro-Nle-Asp-aminoluciferin for chymotrypsin-, trypsin- or caspase-like activity respectively.
(§13) Luminescence was read either kinetically or as an endpoint read using an EnVision 2102 Multilabel Reader (PerkinElmer, Inc) with 0.2 s per well reading time. When kinetic assays were run, luminescence was read every 5 min for 90 min. Endpoint assays were run for 60 min before luminescence was read. All data processing and linear fit analyses were performed using Microsoft Excel for Microsoft 365 software (Redmond, Washington; https://www.microsoft.com/).

[4] = target: native T. cruzi proteasome (chymotrypsin-like activity, β5) (Trypanosoma cruzi, UniProt V5BU39+V5C017); test: Chymotrypsin-like activity assay (Proteasome-Glo), native T. cruzi proteasome; type: biochemical; conditions: for pIC50, Chymotrypsin Assay, Native: mean ± SD, N = 3, biphasic curves (a): pIC50 of most potent curve, 60 min preincubation
Protocol: as §1, §2, §3, §4, §5, §6, §7, §8

[5] = target: recombinant WT T. cruzi proteasome (chymotrypsin-like activity, β5) (Trypanosoma cruzi, UniProt V5BU39+V5C017); test: biochemical; type: biochemical; conditions: for maximum % inhibition plateau, Chymotrypsin Assay, Wild-type: mean ± SD, N = 3 (N = 2 for DDD02091966), (a) mid-point plateau from biphasic curve fits
Protocol: as §1, §2, §10, §11, §12, §13, §3

[6] = target: recombinant Δβ1Δβ2 mutant T. cruzi proteasome (chymotrypsin-like activity) (Trypanosoma cruzi, UniProt V5BU39+V5C017); test: biochemical; type: biochemical; conditions: for maximum % inhibition plateau, Chymotrypsin Assay, Δβ1Δβ2 mutant / pIC50, Chymotrypsin Assay, Δβ1Δβ2 mutant: mean ± SD, N = 3
Protocol: as §9, §1, §2, §10, §11, §12, §13

[7] = target: recombinant β4^R mutant T. cruzi proteasome (chymotrypsin-like activity) (Trypanosoma cruzi, UniProt V5BU39+V5C017, F24L/I29M); test: biochemical; type: biochemical; conditions: for pIC50, Chymotrypsin Assay, β4^R mutant: mean ± SD, N = 3, biphasic curves (a): pIC50 of most potent curve
Protocol: as §9, §1, §2, §10, §11, §12, §13

[8] = target: native T. cruzi proteasome (trypsin-like activity, β2) (Trypanosoma cruzi, UniProt V5BCU3); test: Trypsin-like activity assay (Proteasome-Glo), native T. cruzi proteasome; type: biochemical; conditions: mean ± SD, N = 3; for IC50: read-out: pIC50, Trypsin Assay, Native (converted)
Protocol: as §1, §2, §3, §4, §5, §6, §7, §8

[9] = target: recombinant WT T. cruzi proteasome (trypsin-like activity, β2) (Trypanosoma cruzi, UniProt V5BCU3); test: biochemical; type: biochemical; conditions: mean ± SD, N = 3; for IC50: read-out: pIC50, Trypsin Assay, Wild-type (converted)
Protocol: as §1, §2, §3, §4, §5, §6, §7, §8

[10] = target: recombinant β4^R mutant T. cruzi proteasome (trypsin-like activity) (Trypanosoma cruzi, UniProt V5BCU3); type: biochemical; conditions: mean ± SD, N = 3
Protocol: as §9, §1, §2, §10, §11, §12, §13

[11] = system: intracellular T. cruzi Silvio X10/7 A1 amastigotes; test: Intracellular T. cruzi assay; type: cell-based; conditions: Trypanosoma cruzi; 96 h compound treatment, Vero host cells; given as [mean pEC50, SD, N]; read-out: Mean pEC50 against intracellular T. cruzi parasites (converted)
Protocol: Potency against intracellular T. cruzi Silvio X10/7 A1 amastigotes was determined as described previously ([53]), with a sole modification that the compound treatment duration was 96 h instead of 72 h. Vero host cells were obtained from The European Collection of Authenticated Cell Cultures (cat. number 84113001) and tested for mycoplasma (negative). T. cruzi Silvio X10/7 A1 was obtained from Prof. Alan Fairlamb, and discrete typing unit confirmed by genotyping ([53]).

Compound | IC50 [1] [nM] | IC50 [2] [nM] | IC50 [3] [nM] | IC50 [4] [nM] | IC50 [5] [nM] | maximum % inhibition plateau, Chymotrypsin Assay, Wild-type [5] | IC50 [6] [nM] | IC50 [7] [nM] | IC50 [8] [nM] | IC50 [9] [nM] | pIC50, Trypsin Assay, β4^R mutant [10] | further results
CC(C)C[C@H](NC(=O)[C@H](Cc1ccccc1)NC(=O)c1cnccn1)B(O)O [Bortezomib] | 72.4 | 72.4 | 93.3 | – | – | – | – | – | – | – | – | –
O=C(Nc1ccc(F)c(-c2cn3nc(N4CCOCC4)cnc3n2)c1)N1CCCC1 [DDD01012247] | > 30200 | > 30200 | > 30200 | 12 | 16.2 | 68.9 ± 3.5% | 19.5 | 6920 | > 30200 | > 30200 | <4.52 | EC50 [11]: 126 nM
CNC(=O)c1cc(NC(=O)c2ccc(=O)n(Cc3ccc(OC)cc3)n2)ccc1F [DDD02097487] | > 30200 | > 30200 | > 30200 | 120 | 178 | 48.2 ± 3.6% | 155 | > 30200 | > 30200 | > 30200 | <4.52 | extent of inhibition in chymotrypsin dose-response curve, Δβ1Δβ2 mutant ([6]; top of dose-response curve): unable to fully inhibit; EC50 [11]: 794 nM
CC[C@H](C)[C@H](NC(=O)[C@H]([C@@H](C)CC)N(C)C(C)=O)C(=O)N[C@H](C(=O)N[C@@H](CC(C)C)C(=O)[C@@]1(C)CO1)[C@@H](C)O [Epoxomicin, reference compound] | – | – | – | – | – | 96.1 ± 3.0% | – | – | – | – | 6.11 ± 0.06 | pIC50, Chymotrypsin Assay, Native [4]: 7.50 ± 0.12; pIC50, Chymotrypsin Assay, Wild-type [5]: 7.40 ± 0.17; maximum % inhibition plateau, Chymotrypsin Assay, Δβ1Δβ2 mutant [6]: 100.1 ± 0.5%; pIC50, Chymotrypsin Assay, Δβ1Δβ2 mutant [6]: 7.44 ± 0.03; pIC50, Chymotrypsin Assay, β4^R mutant [7]: 7.33 ± 0.15; pIC50, Trypsin Assay, Native [8]: 6.08 ± 0.00; pIC50, Trypsin Assay, Wild-type [9]: 6.09 ± 0.04; pIC50, Caspase Assay, Native [1]: 5.99 ± 0.01; pIC50, Caspase Assay, Wild-type [2]: 5.97 ± 0.03; pIC50, Caspase Assay, β4^R mutant [3]: 5.88 ± 0.03
CC(C)C[C@H](NC(=O)CNC(=O)c1cc(Cl)ccc1Cl)B(O)O [Ixazomib, reference compound] | 44.7 | 55 | 46.8 | 35.5 | 19.5 | 52.7 ± 21.9^ a % | 22.9 | 13.2 | 8710 | 6920 | 5.53 ± 0.03 | –
CCC[C@@H](C=O)NC(=O)[C@H](CC(C)C)NC(=O)[C@H](CC(C)C)NC(=O)OCc1ccccc1 [MG115, reference compound] (Cbz-Leu-Leu-[Nva]-aldehyde) | – | – | – | – | – | 93.3 ± 2.9% | – | – | – | – | 5.24 ± 0.05 | pIC50, Chymotrypsin Assay, Native [4]: 6.04 ± 0.08; pIC50, Chymotrypsin Assay, Wild-type [5]: 6.07 ± 0.13; maximum % inhibition plateau, Chymotrypsin Assay, Δβ1Δβ2 mutant [6]: 99.4 ± 1.0%; pIC50, Chymotrypsin Assay, Δβ1Δβ2 mutant [6]: 6.38 ± 0.16; pIC50, Chymotrypsin Assay, β4^R mutant [7]: 6.24 ± 0.05; pIC50, Trypsin Assay, Native [8]: 4.89 ± 0.16; pIC50, Trypsin Assay, Wild-type [9]: 4.97 ± 0.09; pIC50, Caspase Assay, Native [1]: 4.79 ± 0.11; pIC50, Caspase Assay, Wild-type [2]: 4.77 ± 0.07; pIC50, Caspase Assay, β4^R mutant [3]: 5.03 ± 0.04
CC(C)C[C@@H](C=O)NC(=O)[C@H](CC(C)C)NC(=O)[C@H](CC(C)C)NC(=O)OCc1ccccc1 [MG132, carbobenzoxy-l-leucyl-l-leucyl-l-leucinal, reference compound] (Cbz-Leu-Leu-Leu-aldehyde) | 3980 | 3310 | 3090 | 120 | 115 | 66.1 ± 6.6^ a % | 91.2 | 60.3 | 8910 | 8320 | 5.21 ± 0.11 | –
COC[C@H](NC(=O)c1cnc(C)s1)C(=O)N[C@@H](COC)C(=O)N[C@@H](Cc1ccccc1)C(=O)[C@@]1(C)CO1 [Oprozomib] | > 30200 | > 30200 | > 30200 | – | – | – | – | – | > 30200 | > 30200 | <4.52 | –
